Results: PMC10999543, “Identification of kinase modulators as host-directed therapeutics against intracellular methicillin-resistant Staphylococcus aureus” (Frontiers in Cellular and Infection Microbiology, 2024)
Like-named read-outs stand apart in the source and are kept apart here.

Key:
[1] = tested on: intracellular MRSA; type: cell-based, Staphylococcus aureus; settings: for %GFP+ rep 1 / z-scoreMRSA+ rep 1: replicate 1; for %GFP+ rep 2 / z-scoreMRSA+ rep 2: replicate 2; for %GFP+ rep 3 / z-scoreMRSA+ rep 3: replicate 3; for z-scoreMRSA+ mean: mean of 3 replicates
In short: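 HeLa, MRSA-GFP at MOI ~6.8, 1 h infection; gentamicin 30 µg/ml for 15 min; inhibitor plus gentamicin 5 µg/ml overnight, 37°C/5% CO2; triplicate plates; FACS %GFP+ and cell count; hit = z ≤ -2 MRSA+, z ≥ -3 count.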

[2] = tested on: HeLa cells; assay: Compound screen by flow cytometry: HeLa cell count as surrogate readout of cell viability (z-scoreHeLa); type: cell-based, human; settings: for cell count rep 1 / z-scoreHeLa rep 1: replicate 1; for cell count rep 2 / z-scoreHeLa rep 2: replicate 2; for cell count rep 3 / z-scoreHeLa rep 3: replicate 3; for z-scoreHeLa mean: mean of 3 replicates
In short: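 HeLa cells were infected with GFP-MRSA (mean MOI 6.8 ± 4.6) for 1 h, and extracellular bacteria were killed with 30 µg/ml gentamicin. Cells were then incubated overnight with kinase inhibitors in 5 µg/ml gentamicin, in triplicate against DMSO controls. Flow-cytometric cell count served as a viability surrogate, expressed as a plate z-score.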

[3] = PKIS compound screen raw data, MRSA-infected HeLa cells
[4] = Yes/No: effect without cell death
[5] = compound screen, MRSA-infected HeLa cells
[6] = PKIS compound screen raw data, HeLa cell count
[7] = compound screen, HeLa cell count
[8] = PKIS compounds raw data, MRSA-infected HeLa cells
[9] = PKIS compounds raw data, HeLa cell count
[10] = PKIS compound screen, MRSA-infected HeLa cells
[11] = PKIS compound screen, Yes/No call (effect without cell death)
[12] = PKIS compound screen, Yes/No call on z-scoreMRSA+
[13] = PKIS compound screen, HeLa cell count
[14] = PKIS compound screen, Yes/No call on z-scoreHeLa
[15] = PKIS compound screen, Yes/No call

Compound: c1ccc(-c2n[nH]cc2-c2ccnc(-c3ccc(CNC4CCOCC4)cc3)c2)nc1 [GW709213X]
- %GFP+ rep 1 [1, 3]: 20.2%
- %GFP+ rep 2 [1, 3]: 23.4%
- %GFP+ rep 3 [1, 3]: 24.6%
- effect ([1]; Yes/No call from z-scoreMRSA+): No
- hit [1, 4]: No
- z-scoreMRSA+ mean [1, 5]: 0.80
- z-scoreMRSA+ rep 1 [1, 5]: 0.38
- z-scoreMRSA+ rep 2 [1, 5]: 1.09
- z-scoreMRSA+ rep 3 [1, 5]: 0.92
- cell count rep 1 [2, 6]: 27129
- cell count rep 2 [2, 6]: 33773
- cell count rep 3 [2, 6]: 22823
- cell death ([2]; Yes/No call from z-scoreHeLa): No
- z-scoreHeLa mean [2, 7]: 0.57
- z-scoreHeLa rep 1 [2, 7]: -0.52
- z-scoreHeLa rep 2 [2, 7]: 1.46
- z-scoreHeLa rep 3 [2, 7]: 0.76

Compound: COc1ccc(-c2oc3ncnc(N)c3c2-c2ccc(NC(=O)Nc3cc(C(F)(F)F)ccc3F)cc2)cc1 [GW768505A]
- %GFP+ rep 1 [1, 8]: 11.3%
- %GFP+ rep 2 [1, 8]: 13.4%
- %GFP+ rep 3 [1, 8]: 12.4%
- effect ([1]; Yes/No call from z-scoreMRSA+): No
- hit [1, 4]: No
- z-scoreMRSA+ mean [1, 5]: -0.55
- z-scoreMRSA+ rep 1 [1, 5]: -0.60
- z-scoreMRSA+ rep 2 [1, 5]: -0.0319
- z-scoreMRSA+ rep 3 [1, 5]: -1.03
- cell count rep 1 [2, 9]: 2576
- cell count rep 2 [2, 9]: 4064
- cell count rep 3 [2, 9]: 5860
- cell death ([2]; Yes/No call from z-scoreHeLa): No
- z-scoreHeLa mean [2, 7]: -0.89
- z-scoreHeLa rep 1 [2, 7]: -1.99
- z-scoreHeLa rep 2 [2, 7]: -0.15
- z-scoreHeLa rep 3 [2, 7]: -0.53

Compound: Nc1ncnc2occ(-c3ccc(NC(=O)Nc4cc(C(F)(F)F)ccc4F)cc3)c12 [GW770249X]
- %GFP+ rep 1 [1, 8]: 10.7%
- %GFP+ rep 2 [1, 8]: 11.5%
- %GFP+ rep 3 [1, 8]: 11.5%
- effect ([1]; Yes/No call from z-scoreMRSA+): No
- hit [1, 4]: No
- z-scoreMRSA+ mean [1, 5]: -0.92
- z-scoreMRSA+ rep 1 [1, 5]: -0.79
- z-scoreMRSA+ rep 2 [1, 5]: -0.67
- z-scoreMRSA+ rep 3 [1, 5]: -1.30
- cell count rep 1 [2, 9]: 2336
- cell count rep 2 [2, 9]: 2249
- cell count rep 3 [2, 9]: 3259
- cell death ([2]; Yes/No call from z-scoreHeLa): No
- z-scoreHeLa mean [2, 7]: -1.83
- z-scoreHeLa rep 1 [2, 7]: -2.21
- z-scoreHeLa rep 2 [2, 7]: -1.53
- z-scoreHeLa rep 3 [2, 7]: -1.77

Compound: Cc1c2ccc(N(C)c3ccnc(Nc4cccc(S(N)(=O)=O)c4)n3)cc2nn1C [GW771127A]
- %GFP+ rep 1 [1, 3]: 14.2%
- %GFP+ rep 2 [1, 3]: 13.8%
- %GFP+ rep 3 [1, 3]: 15.3%
- z-scoreMRSA+ mean [1, 10]: -1.32
- z-scoreMRSA+ rep 1 [1, 10]: -1.16
- z-scoreMRSA+ rep 2 [1, 10]: -1.42
- z-scoreMRSA+ rep 3 [1, 10]: -1.37
- hit [1, 11]: No
- effect [1, 12]: No
- cell count rep 1 [2, 6]: 10020
- cell count rep 2 [2, 6]: 29599
- cell count rep 3 [2, 6]: 33795
- z-scoreHeLa mean [2, 13]: -1.19
- z-scoreHeLa rep 1 [2, 13]: -1.53
- z-scoreHeLa rep 2 [2, 13]: -0.97
- z-scoreHeLa rep 3 [2, 13]: -1.07
- cell death [2, 14]: No

Compound: Cc1ccc(NC(=O)c2ccnc(N3CCN(C)CC3)c2)cc1-c1ccc(C(=O)NCC2CC2)cc1 [GW775604X]
- %GFP+ rep 1 [1, 3]: 22.9%
- %GFP+ rep 2 [1, 3]: 25.3%
- %GFP+ rep 3 [1, 3]: 27.3%
- z-scoreMRSA+ mean [1, 10]: 1.46
- z-scoreMRSA+ rep 1 [1, 10]: 1.10
- z-scoreMRSA+ rep 2 [1, 10]: 1.61
- z-scoreMRSA+ rep 3 [1, 10]: 1.66
- effect [1, 15]: No
- hit [1, 11]: No
- effect [1, 12]: No
- z-scoreMRSA+ mean ([1]; PKIS compound screen): -0.35
- z-scoreMRSA+ rep 1 ([1]; PKIS compound screen): -0.34
- z-scoreMRSA+ rep 2 ([1]; PKIS compound screen): -0.43
- z-scoreMRSA+ rep 3 ([1]; PKIS compound screen): -0.27
- %GFP+ rep 1 [1, 8]: 25.3%
- %GFP+ rep 2 [1, 8]: 23.8%
- %GFP+ rep 3 [1, 8]: 25.8%
- cell count rep 1 [2, 6]: 20638
- cell count rep 2 [2, 6]: 17919
- cell count rep 3 [2, 6]: 18503
- z-scoreHeLa mean [2, 13]: -0.99
- z-scoreHeLa rep 1 [2, 13]: -1.62
- z-scoreHeLa rep 2 [2, 13]: -1.26
- z-scoreHeLa rep 3 [2, 13]: -0.08
- cell death [2, 15]: No
- cell death [2, 14]: No
- z-scoreHeLa mean ([2]; PKIS compound screen): 0.09
- z-scoreHeLa rep 1 ([2]; PKIS compound screen): -0.44
- z-scoreHeLa rep 2 ([2]; PKIS compound screen): 1.03
- z-scoreHeLa rep 3 ([2]; PKIS compound screen): -0.32
- cell count rep 1 [2, 9]: 5307
- cell count rep 2 [2, 9]: 7562
- cell count rep 3 [2, 9]: 5095

Compound: Cc1ccnc2ccc(-c3sc(N)nc3-c3ccccn3)nc12 [GW777257X]
- %GFP+ rep 1 [1, 3]: 20.9%
- %GFP+ rep 2 [1, 3]: 19.0%
- %GFP+ rep 3 [1, 3]: 19.9%
- effect ([1]; Yes/No call from z-scoreMRSA+): No
- hit [1, 4]: No
- z-scoreMRSA+ mean [1, 5]: -0.86
- z-scoreMRSA+ rep 1 [1, 5]: -1.02
- z-scoreMRSA+ rep 2 [1, 5]: -0.88
- z-scoreMRSA+ rep 3 [1, 5]: -0.69
- cell count rep 1 [2, 6]: 3590
- cell count rep 2 [2, 6]: 3185
- cell count rep 3 [2, 6]: 3623
- cell death ([2]; Yes/No call from z-scoreHeLa): No
- z-scoreHeLa mean [2, 7]: -0.81
- z-scoreHeLa rep 1 [2, 7]: -0.55
- z-scoreHeLa rep 2 [2, 7]: -0.86
- z-scoreHeLa rep 3 [2, 7]: -1.02
